Assay results from patent US4005217A, “Treatment of helminth infections with substituted phenyl-thiourea derivatives” (May & Baker Limited, priority 1970, dated 1977).
In brackets after ≈: the same amount, converted by molar mass. Counter-ions that a name gives are not always drawn. Like-named read-outs stand apart in the source and are kept apart here.

Experiments:
[1] = test system: Nippostrongylus brasiliensis; experiment: Test 2: activity against roundworms in rats, treatment 24 hours after infection, worm counts 6 days after dosing; assay type: in vivo; settings: rats; for inhibition in vivo at 1000 mg/kg / worm damage: Test 2, 1000 mg/kg oral
Procedure: Test 2 -- Rats were infected with 100 Nippostrongylus brasiliensis larvae each, by the subcutaneous route. After 24 hours the rats were randomised and allotted to groups of 5 animals each, ready for treatment. Doses of the test compound were then administered to each group by the oral, subcutaneous and intraperitoneal routes respectively, one group of 10 animals being left untreated as a control. All the rats were killed for post-mortem worm counts 6 days after dosing. The activities, expressed in terms of the percentage reductions in mean worm load of the treated groups or damage to the worms compared with the untreated control group, are given below in Table I.

[2] = test system: Nippostrongylus brasiliensis; experiment: Test 1: activity against roundworms in rats, treatment 6 days after infection (patent infection), worm counts 48 hours after treatment; assay type: in vivo
Procedure: Test 1 - Rats were infected with 100 Nippostrongylus brasiliensis larvae each, by the subcutaneous route. After 6 days, when the infection was patent, the rats were randomised and alloted to groups of 10 animals each, ready for treatment. One group was used for each dose level of the test compound and, in each experiment, one group was left untreated as a control. All the rats were killed for post-mortem worm counts 48 hours after treatment. The activity, expressed in terms of the percentage reduction in mean worm load of the treated group compared with the untreated group, is shown in Table I.

[3] = test system: Trichostrongylus colubriformis; experiment: Activity against 4th larval stages in lambs, oral treatment (Table II); assay type: in vivo; settings: 100 mg/kg oral
Procedure: (§1) i. 9 Worm-free lambs were each infected with H.contortus (approximately 9,000), T. axei (approximately 7,000) and T. colubriformis (approximately 12,000) infective larvae. After 7 days, 4 lambs were treated orally with 100 mg/kg animal body weight of the 2 test compounds, i.e. 2 lambs per compound, against the 4th larval stages of the worms. 23 Days after infection, all 9 lambs were killed for post-mortem worm counts and the burdens of each worm species in the 4 treated animals compared with those in the remaining 5 untreated control animals.

Haemonchus contortus [4] = experiment: as above; assay type: in vivo; settings: 100 mg/kg oral
Procedure: as §1

Trichostrongylus axei [5] = experiment: as above; assay type: in vivo; settings: 100 mg/kg oral
Procedure: as §1

[6] = test system: Nippostrongylus brasiliensis eggs; experiment: In vitro activity against roundworms (egg hatching and larvae); assay type: cell-based; settings: 96 h, tested at 100, 10, 1 and 0.1 μg/ml, inhibited or delayed hatching of eggs, or killed, retarded growth or reduced activity of larvae during 4 days, read-out: M.I.C. (minimum inhibitory concentration)
Procedure: Compounds of formula I were tested at concentrations of 100 μg/ml, 10 μg/ml, 1 μg/ml and 0.1 μg/ml in small glass containers. If the compound was not soluble in water, a volatile organic medium, e.g. acetone, chloroform, ethanol or methanol was used. An amount of material appropriate for each final concentration was measured and placed in duplicate test containers and if an organic solvent was used it was allowed to evaporate completely. Nippostrongylus brasiliensis eggs were recovered by saturated saline centrifugal flotation from the faeces of rats heavily infected with third stage larvae six days previously. They were washed several times in water and suspended in water in a suitable concentration. From 25-50 eggs were placed in each container and the final volume was made up by the addition of a very dilute aqueous suspension of mouse faeces which served as the growth medium. The minimum inhibitory concentrations of each compound (M.I.C.), shown in the following Table V was the minimum concentration in μg/ml total liquid volume at which it inhibited or delayed hatching of eggs, or at which it killed, retarded growth or reduced activity of larvae during the 4 days after beginning the test.

[7] = test system: Trichostrongylus colubriformis; experiment: Activity against mature adult stages in lambs, oral treatment (Table III); assay type: in vivo; settings: 120 h, 15 mg/kg oral, read-out: Mean percentage reduction in worm burdens, T.colubriformis
Procedure: (§2) ii. 20 Worm-free lambs were each infected with H. contortus (approximately 5,600), T. axei (approximately 9,300) and T. colubriformis (approximately 10,000) infective larvae. After 22 days, 16 lambs were treated orally with 15 mg/kg animal body weight of the 8 test compounds, i.e. 2 lambs per compound, against the mature adult stages of the worms. 27 Days after infection, all 20 lambs were killed for post-mortem worm counts and the burden of each worm species in the 16 treated animals compared with those in the remaining 4 untreated control animals.

Haemonchus contortus [8] = experiment: as above; assay type: in vivo; settings: 120 h, 15 mg/kg oral, read-out: Mean percentage reduction in worm burdens, H.contortus
Procedure: as §2

Trichostrongylus axei [9] = experiment: as above; assay type: in vivo; settings: 120 h, 15 mg/kg oral, read-out: Mean percentage reduction in worm burdens, T.axei
Procedure: as §2

[10] = test system: naturally acquired strongyle infections; experiment: Effect on faecal egg output in naturally infected sheep (ewes); assay type: in vivo, O. circumcincta, H. contortus and Cooperia spp.; settings: 50 mg/kg oral
Procedure: Faecal material from sheep with naturally acquired strongyle infections was incubated for 7 days at 27° C. followed by identification of the infective larvae present. Amongst those species present were O. circumcincta, H. contortus and Cooperia spp.
Egg counts were carried out on individual samples of faeces taken from the animals two and one day previous to dosings.
Egg counts were made using the McMaster technique. If a count by this technique was negative, a positive/negative egg flotation determination was made.
A group of 3 ewes was treated orally with 50 mg/kg animal body weight of test compound and further egg counts made at intervals for 3 weeks after treatment.

Trichinella spiralis = experiment: Activity against roundworms in mice; assay type: in vivo; settings: 100 mg/kg subcutaneous at 2 hours and 24 hours post infection, killed 5 days after second dose
Procedure: Mice were infected with approximately 100 Trichinella spiralis larvae each, by the oral route. The mice were randomised and allotted to two groups of 4 animals each. Doses of 1-methoxycarbonyl-3-(2-dimethylaminoacetamidophenyl)thiourea hydrochloride were then administered to one group by the subcutaneous route at 2 hours post infection and again at 24 hours post infection, one group of 4 animals being left untreated as a control. The doses given to the mice were 100 mg/kg animal body weight. All the mice were killed for postmortem examination 5 days after the second dose. The activity, expressed in terms of the percentage reduction in mean worm load of the treated group compared with the control group, was 95%.

T. colubriformis = experiment: Activity in lambs by subcutaneous injection against 4th larval and adult stages; assay type: in vivo; settings: 75 mg/kg subcutaneous injection (18% w/v aqueous solution)
Procedure: (§3) b. 8 Worm-free lambs were each infected with H. contortus (approximately 7,000) and T. colubriformis ((approximately 15,000) infective larvae. After 7 days, 2 lambs were treated by subcutaneous injection of an 18% w/v aqueous solution at 75 mg/kg animal body weight of the test compound against the 4th larval stages of the worms. 28 Days after infection, 2 lambs were similarly treated against the adult stages of the worms. 35 Days after infection all 8 lambs were killed for post-mortem worm counts and the burdens of each worm species in the 4 treated animals compared with those in the remaining 4 untreated animals.

H. contortus = experiment: as above; assay type: in vivo; settings: 75 mg/kg subcutaneous injection (18% w/v aqueous solution)
Procedure: as §3

[11] = test system: influenza virus type A2 /Hong Kong/5/68; assay type: in vivo; settings: mice, 250 mg/kg oral 3 hours before and 1 hour after infection; pooled lungs 24 hours after infection; greatest dilution producing agglutination
[12] = Nippostrongylus brasiliensis, 144 h, read-out: Percentage reduction in N.brasiliensis load

## CCCCc1ccc(NC(=S)NC(=O)OC)c(NC(C)=O)c1 [1-methoxycarbonyl-3-(2-acetamido-4-n-butylphenyl)thiourea]
[1]; [12]
  inhibition in vivo at 1000 mg/kg: 98%
[1]
  worm damage: worm damage
[2]; Test 1, 500 mg/kg oral
  worm damage: worm damage
[3]
  Mean percentage reduction in worm burdens, T.colubriformis: 100%
Haemonchus contortus [4]
  Mean percentage reduction in worm burdens, H.contortus: 99.9%
Trichostrongylus axei [5]
  Mean percentage reduction in worm burdens, T.axei: 99.5%
[6]
  MIC: 0.1 µg/mL (≈ 0.309 µM)
[7]
  inhibition in vivo at 15 mg/kg: 6.7%
Haemonchus contortus [8]
  inhibition in vivo at 15 mg/kg: 76.7%
Trichostrongylus axei [9]
  inhibition in vivo at 15 mg/kg: 66.9%

## CCCCc1ccc(NC(C)=O)c(NC(=S)NC(=O)OC)c1 [1-methoxycarbonyl-3-(2-acetamido-5-n-butylphenyl)thiourea]
[1]; [12]
  inhibition in vivo at 1000 mg/kg: 99%
[1]
  worm damage: worm damage
[2]; Test 1, 1000 mg/kg oral
  worm damage: worm damage
[6]
  MIC: 0.1 µg/mL (≈ 0.309 µM)
[7]
  inhibition in vivo at 15 mg/kg: 95%
Haemonchus contortus [8]
  inhibition in vivo at 15 mg/kg: 82.1%
Trichostrongylus axei [9]
  inhibition in vivo at 15 mg/kg: 98.2%

## COC(=O)NC(=S)Nc1ccc(NC(=O)OC(C)C)cc1N [1-methoxycarbonyl-3-(2-amino-4-isopropoxycarbonylaminophenyl)thiourea]
[1]; [12]
  inhibition in vivo at 1000 mg/kg: 100%
[2]; Test 1, 500 mg/kg oral
  worm damage: worm damage
[6]
  MIC: 100 µg/mL (≈ 306 µM)
[7]
  inhibition in vivo at 15 mg/kg: 83%
Haemonchus contortus [8]
  inhibition in vivo at 15 mg/kg: 97.7%
Trichostrongylus axei [9]
  inhibition in vivo at 15 mg/kg: 94.6%

## CCCCc1ccc(NC(=S)NC(=O)OC)c(N)c1 [1-methoxycarbonyl-3-(2-amino-4-n-butylphenyl)thiourea]
[2]; Nippostrongylus brasiliensis, po, 48 h, Test 1, 500 mg/kg oral, read-out: Percentage reduction in N.brasiliensis load
  inhibition in vivo at 500 mg/kg: 75%
[2]; Test 1, 500 mg/kg oral
  worm damage: worm damage
[3]
  Mean percentage reduction in worm burdens, T.colubriformis: 100%
Haemonchus contortus [4]
  Mean percentage reduction in worm burdens, H.contortus: 100%
Trichostrongylus axei [5]
  Mean percentage reduction in worm burdens, T.axei: 99.5%
[6]
  MIC: 0.1 µg/mL (≈ 0.355 µM)

## COC(=O)NC(=S)Nc1ccccc1N [1-methoxycarbonyl-3-(2-aminophenyl)thiourea]
[2]; Test 1, 1000 mg/kg oral
  Percentage reduction in N.brasiliensis load: 99%
  worm damage: worm damage
[6]
  MIC: 0.1 µg/mL (≈ 0.444 µM)
[10]; 1 day after treatment
  Mean faecal egg count/gm. faeces: 450 /gm. faeces
[10]; 2 days before treatment (baseline)
  Mean faecal egg count/gm. faeces: 250 /gm. faeces
[10]; 4 days after treatment
  Mean faecal egg count/gm. faeces: 250 /gm. faeces
[10]; 6 days after treatment
  Mean faecal egg count/gm. faeces: 50 /gm. faeces
[10]; 8 days after treatment
  Mean faecal egg count/gm. faeces: 134 /gm. faeces
[10]; 15 days after treatment
  Mean faecal egg count/gm. faeces: 75 /gm. faeces
[10]; 18 days after treatment
  Mean faecal egg count/gm. faeces: 100 /gm. faeces
[10]; 20 days after treatment
  Mean faecal egg count/gm. faeces: 50 /gm. faeces
[10]; 22 days after treatment
  Mean faecal egg count/gm. faeces: 50 /gm. faeces

## COC(=O)NC(=S)Nc1ccccc1NC(=O)CN(C)C [1-methoxycarbonyl-3-(2-dimethylaminoacetamidophenyl)thiourea hydrochloride]
Trichinella spiralis
  percentage reduction in mean worm load: 95%
[1]; [12]
  inhibition in vivo at 1000 mg/kg: 100%
[1]; Nippostrongylus brasiliensis, ip, 144 h, Test 2, 50 mg/kg intraperitoneal, read-out: Percentage reduction in N.brasiliensis load
  inhibition in vivo at 50 mg/kg: 89%
[1]; Nippostrongylus brasiliensis, ip, 144 h, Test 2, 100 mg/kg intraperitoneal, read-out: Percentage reduction in N.brasiliensis load
  inhibition in vivo at 100 mg/kg: 99%
[1]; Nippostrongylus brasiliensis, ip, 144 h, Test 2, 250 mg/kg intraperitoneal, read-out: Percentage reduction in N.brasiliensis load
  inhibition in vivo at 250 mg/kg: 96%
[1]; Nippostrongylus brasiliensis, sc, 144 h, Test 2, 60 mg/kg subcutaneous, read-out: Percentage reduction in N.brasiliensis load
  inhibition in vivo at 60 mg/kg: 89.8%
[1]; Nippostrongylus brasiliensis, sc, 144 h, Test 2, 250 mg/kg subcutaneous, read-out: Percentage reduction in N.brasiliensis load
  inhibition in vivo at 250 mg/kg: 99.5%
[1]; Nippostrongylus brasiliensis, sc, 144 h, Test 2, 500 mg/kg subcutaneous, read-out: Percentage reduction in N.brasiliensis load
  inhibition in vivo at 500 mg/kg: 99.5%
[2]; Nippostrongylus brasiliensis, po, 48 h, Test 1, 1000 mg/kg oral, read-out: Percentage reduction in N.brasiliensis load
  inhibition in vivo at 1000 mg/kg: 91%
[6]
  MIC: 1 µg/mL
T. colubriformis; 4th larval stage
  Mean percentage reduction in worm burdens, T.colubriformis: 99.9%
T. colubriformis; adult stage
  Mean percentage reduction in worm burdens, T.colubriformis: 99.7%
H. contortus; 4th larval stage
  Mean percentage reduction in worm burdens, H.contortus: 87.1%
H. contortus; adult stage
  Mean percentage reduction in worm burdens, H.contortus: 95.3%
[7]
  inhibition in vivo at 15 mg/kg: 43.4%
Haemonchus contortus [8]
  inhibition in vivo at 15 mg/kg: 60%
Trichostrongylus axei [9]
  inhibition in vivo at 15 mg/kg: 78%

## COC(=O)NC(=S)Nc1ccc(NC(=O)OC(C)C)cc1NC=O [1-methoxycarbonyl-3-(2-formamido-4-isopropoxycarbonylaminophenyl)thiourea]
[7]
  inhibition in vivo at 15 mg/kg: 29.6%
Haemonchus contortus [8]
  inhibition in vivo at 15 mg/kg: 40.1%
Trichostrongylus axei [9]
  inhibition in vivo at 15 mg/kg: 70.8%

## CCCCc1ccc(NC(=S)NC(=O)OC)c(NC(=O)C2CC2)c1 [1-methoxycarbonyl-3-(4-n-butyl-2-cycloproplycarbonamidophenyl)thiourea]
[6]
  MIC: 0.1 µg/mL (≈ 0.286 µM)
[7]
  inhibition in vivo at 15 mg/kg: 27.1%
Haemonchus contortus [8]
  inhibition in vivo at 15 mg/kg: 58.4%
Trichostrongylus axei [9]
  inhibition in vivo at 15 mg/kg: 57.6%

## CCCCc1ccc(NC(=S)NC(=O)OC)c(NC=O)c1 [1-methoxycarbonyl-3-(4-n-butyl-2-formamidophenyl)thiourea]
[6]
  MIC: 0.1 µg/mL (≈ 0.323 µM)
[7]
  inhibition in vivo at 15 mg/kg: 36.9%
Haemonchus contortus [8]
  inhibition in vivo at 15 mg/kg: 84.3%
Trichostrongylus axei [9]
  inhibition in vivo at 15 mg/kg: 84.2%

## CCCCc1ccc(NC(=O)OCC)c(NC(=S)NC(=O)OC)c1 [1-methoxycarbonyl-3-(5-n-butyl-2-ethoxycarbonylaminophenyl)thiourea]
[11]
  Haemagglutinin titre-treated animals: 1/64
[1]; [12]
  inhibition in vivo at 1000 mg/kg: 96%
[1]
  worm damage: worm damage
[6]
  MIC: 10 µg/mL (≈ 28.3 µM)
[7]
  inhibition in vivo at 15 mg/kg: 40.1%
Haemonchus contortus [8]
  inhibition in vivo at 15 mg/kg: 79.6%
Trichostrongylus axei [9]
  inhibition in vivo at 15 mg/kg: 78.6%
